Where no end group is shown, it is not given here.
Legend:
Type in all cases: cell-based
human monocytes = assay: Intracellular calcium signaling in human monocytes; conditions: 1 μM WRW4
Text: 1.3. Preparation of Neutrophils and Monocytes Peripheral blood was collected from healthy donors (male, 20˜30 years old, venous blood collection). Human neutrophils were isolated by dextran sedimentation followed by hypotonic erythrocyte lysis and lymphocyte separation medium gradient, as described in “Bae, Y. S., H. Bae, Y. Kim, T. G. Lee, P. G. Suh, and S. H. Ryu. 2001. Identification of novel chemoattractant peptides for human leukocytes. Blood 97:2854-2862”. Isolated human neutrophils were used promptly. Peripheral blood mononuclear cells (PBMCs) were separated on a Histopaque-1077 gradient (Bae, Y. S., H. Bae, Y. Kim, T. G. Lee, P. G. Suh, and S. H. Ryu. 2001. Identification of novel chemoattractant peptides for human leukocytes. Blood 97:2854-2862). […]
Intracellular calcium concentrations ([Ca^2+]i) were determined using Grynkiewicz's method with fura-2/AM, as described in “Grynkiewicz, G., M. Poenie, and R. Y. Tsien. […] Fluorescence changes at 340 and 380 nm using a common emission wavelength of 500 nm were measured, and fluorescence ratios were converted to [Ca2+]i, as described in above Grynkiewicz, G. et al.

human neutrophils [1] = assay: Neutrophil chemotaxis assay (multiwell chamber, checkerboard analysis); conditions: 1 μM WRW4, 1 μM PACAP27
Method: Chemotaxis assays were performed using multiwell chambers (Neuroprobe Inc., Gaithersburg, Md.) (Bae, Y. S., H. Bae, Y. Kim, T. G. Lee, P. G. Suh, and S. H. Ryu. 2001. Blood 97:2854-2862). Prepared human neutrophils were suspended in RPMI 1640 medium at a 1×10^6 cells/ml, and 25 μl of this suspension was placed into the upper well of a chamber separated from the lower chamber, which was filled with testing solutions, by a […] filter (not coated with polyvinylpyrrolidone). After incubating for 2 hours at 37° C., non-migrated cells were removed by scraping, and cells that had migrated across the filter were dehydrated, fixed, and stained with hematoxylin (Sigma, St. Louis, Mo.). Stained cells in five randomly chosen high power fields (HPF) (400×) were then counted.
Neutrophil migration was analyzed for 2 hours across a polycarbonate membrane. Various concentrations of PACAP27 (SEQ ID NO:1) as shown in the following Table 1 were placed in the upper and lower compartments of the chambers. Data are presented as means±SE for migrated neutrophils cells per field counted in triplicate of two independent experiments.

human neutrophils [2] = assay: Intracellular calcium mobilization (fura-2) in human neutrophils
Method: (§1) Neutrophils were stimulated with 1 μM of PACAP27 (SEQ ID NO:1), PACAP38 (SEQ ID NO:2), or VIP (SEQ ID NO:3), and calcium concentrations were measured for 10 min. In order to measure EKR phosphorylation, each peptide hormones was used with 1 μM concentrations for 5 min. For cAMP measurement, each peptide hormones was used with 1 μM concentrations for 10 min.
Intracellular calcium concentrations ([Ca^2+]i) were determined using Grynkiewicz's method with fura-2/AM, as described in “Grynkiewicz, G., M. Poenie, and R. Y. Tsien. 1985. […] J. Biol. Chem. 260:3440-3450”. Briefly, the cells prepared in Example 1.2 were incubated with 3 µM fura-2/AM at 37° C. for 50 minutes in fresh serum free RPMI 1640 medium with continuous stirring. The incubated cells (2×10^6) were aliquoted for each assay in Ca^2+-free Locke's solution (154 mM NaCl, 5.6 mM KCl, 1.2 mM MgCl2, 5 mM HEPES (pH 7.3), 10 mM glucose, and 0.2 mM EGTA). Fluorescence changes at 340 and 380 nm using a common emission wavelength of 500 nm were measured, and fluorescence ratios were converted to [Ca2+]i, as described in above Grynkiewicz, G. et al.

human neutrophils [3] = assay: Intracellular cyclic AMP measurement in neutrophils; conditions: 1 μM WRW4, 10 μM PACAP27 for 10 minutes
Method: Neutrophils were stimulated with 1 μM of PACAP27 (SEQ ID NO:1), PACAP38 (SEQ ID NO:2), or VIP (SEQ ID NO:3), and calcium concentrations were measured for 10 min. In order to measure EKR phosphorylation, each peptide hormones was used with 1 μM concentrations for 5 min. […]
Briefly, neutrophils were isolated and resuspended at 5×10^6 cells/ml in Hank's balanced salt solution (HBSS) for 5-10 minutes in a shaking incubator. The HBSS was then replaced with […] HBSS containing 500 µM isobutylmethylxanthine (IBMX; a cAMP phosphodiesterase inhibitor) for 5 minutes, and then cells were stimulated for 10 minutes. The reaction was terminated by adding 1 ml of ethanol, and cAMP levels were determined by using cAMP measuring kit (Neurunex, Pohang, Korea) according to the manufacturer's instructions.

human neutrophils [4] = assay: Western blot for ERK phosphorylation in human neutrophils; conditions: pretreating with 1 μM WRW4
Method: as §1
ERK phosphorylation levels were measured by Western blotting, as described in above Bae, Y. S. et al. Cells (2×10^6/assay) were stimulated with the indicated concentration of agonist for 5 minutes, then washed with serum-free RPMI 1640 medium and lysed in lysis buffer {20 mM HEPES (pH 7.2), 10% glycerol, 150 mM NaCl, 1% Triton X-100, 1 mM PMSF, […], 50 mM NaF, and 1 mM Na3VO4}. Detergent-insoluble materials were pelleted by centrifugation (12,000×g, 15 minutes, 4° C.), and the soluble supernatant fraction was removed and either stored at −80° C. or used immediately. Laemmli sample buffer was added to these fractions and boiled (5 minutes). Proteins were separated by SDS-PAGE and transferred to nitrocellulose membranes (Schleicher and Schuell, BA85). Blocking was performed using TBS buffer (10 mM Tris/HCl, pH 7.5, 150 mM NaCl, and 0.05% Tween-20) containing 5% nonfat dry milk. Membranes were probed with a phospho-ERK specific primary antibody or ERK2 antibody for 3 hours at room temperature. […]

human neutrophils [5] = assay: FACS analysis of surface CD11b expression on neutrophils; conditions: 1 μM WRW4, 10 μM PACAP27
Method: Purified neutrophils were incubated with indicated concentration of PACAP27 (SEQ ID NO:1) for 1 hour. Cells (2×10^5/assay) were washed with FACS buffer (PBS containing 1% BSA and 0.1% sodium azide), incubated with human AB type serum for 10 minutes on ice, and stained with PE-labeled human CD11b antibody (BD PharMingen, San Diego, Calif.). They were then analyzed using a FACSCalibur system (BD Biosciences, San Jose, Calif.), as described in “Harfi, I., S. D'Hondt, F. Corazza, and E. Sariban. 2004. J. Immunol. 173:4154-4163”.

Q: What does the source list for WRWWWW [WRW4]?
A: inhibition of PACAP27-induced calcium signaling in human monocytes (human monocytes): successfully inhibited; inhibition of PACAP27-induced neutrophil chemotaxis (human neutrophils [1]): completely inhibited; effect on PACAP27 priming of fMLP-induced calcium signaling (human neutrophils [2]; 1 M WRW4): abolished; effect on fMLP-induced calcium signaling (human neutrophils [2]; 1 M WRW4, 10 nM fMLP): not affected; concentration that completely inhibits PACAP27-induced neutrophil activation (human neutrophils [2]; human neutrophils): ≥ 100 nM; inhibition of PACAP27-induced [Ca2+]i up-regulation (human neutrophils [2]; human neutrophils, pretreatment 30 seconds, 1 μM PACAP27): successfully inhibited; inhibition of PACAP27-induced cAMP elevation (human neutrophils [3]): failed to inhibit; inhibition of PACAP27-induced ERK-phosphorylation (human neutrophils [4]): completely inhibited; inhibition of PACAP27-induced CD11b up-regulation (human neutrophils [5]): inhibited completely

Reference: patent US20100291089A1, “LIGAND OF REGULATING IMMUNE RESPONSE, AND USE THEREOF IN TREATING AN IMMUNE RESPONSE-RELATED DISEASE” (POSTECH ACADEMY-INDUSTRY FOUNDATION, priority 2005, published 2010)
